Data on 1 substance can be found in patent publication US20120121546A1, “Method of Producing Progenitor Cells from Differentiated Cells” (priority 2009, published 2012).

The subject of the assay is human dermal fibroblasts. The assay is described as follows: Adipogenesis (Oil Red O) of fibroblasts detached with trypsin and seeded at high density. It counts as cell-based. The method, then:
After incubation for about 12-21 days in adipogenic medium, the medium is removed, and cells are fixed in 10% formaldehyde solution in aqueous phosphate buffer for at least 1 hour. Cells are then washed with 60% isopropanol and stained with a working solution of Oil Red 0 solution (in 60% isopropanol, see below for preparation) for 10 minutes. The cells are then washed several times with water, and destained in 100% isopropanol for 15 minutes. The destain solution is removed and the optical density of the solution is measured at 500-510 nm.
In a this set of experiments for producing cells having the ability to differentiate into different cell types, fibroblasts are either incubated in media without trypsin or containing trypsin and then cultured at different lengths of time under high density conditions of about 100,000 cells per well/plate or at about 3703.7 cells per mm^2 surface area of the well/plate before adherence of the cells in a high density plating medium. The cells produced by this method are then tested for their ability to differentiate into adipocytes, as determined by the accumulation of fat.
Fresh human dermal fibroblasts derived from adult skin or from foreskin are purchased from PromoCell® (Banksia Scientific Company, QLD). […]
Test cells are recovered from culture and seeded at concentrations of about 100,000 cells per well/plate or at about 3703.7 cells per mm^2 surface area of the well/plate before attachment of the cells to the plate/well directly in 200 to 400 μl high density plating medium (e.g., Medium 199 containing 170 nM insulin, 0.5 mM 3-isobutyl-1-methylxanthine, 0.2 mM indomethacin, 1 μM dexamethasone, and 15% rabbit serum) for a time and under conditions sufficient for an optimum number of progenitor cells to be produced e.g., for up to about 24 hours or until adherence is achieved, i.e., a shorter time than required for cells to become adherent and/or as determined by analysis of cell marker expression and/or by the ability of aliquots of cells to subsequently undergo differentiation. […]

On to trypsin, for which the “ability to differentiate into adipocytes” value (detached with 0.12% trypsin, seeded at about 100,000 cells per well in high density plating medium before adherence, then adipogenic medium, cells without trypsin gave no detectable adipocytes) is on record as “capable of differentiating into adipocytes”. The “optimum time in adipogenic medium for assuming ability to differentiate into adipocytes” value (numbers of fat-producing cells assayed from day 10 to day 21 in adipogenic medium) was in the range of 10 to 14 days. Further, where the note is “seeding directly into high density plating medium”, the “time from incubation with trypsin to high density seeding at which adipocytes are apparent” value was at most 6 h.
